Where “and” joins values, the source holds several entries; their conditions need not be identical. Equal values may be shown once. Read-outs that look alike come from different tables or passages of the source.
Tested on: C. elegans
[1] = Table S2, C. elegans SS assay, 110 μM, 0 h, averages of 4 data points
[2] = Table S2, C. elegans SS assay, 110 μM, 24 h, averages of 4 data points

Substance | Percentage of motility inhibition 0 h [1] | Percentage of motility inhibition 24 h [2] | other results
(±)-Huperzine A | 0% | 16% | –
(±)‐10‐Hydroxycamptothecin | 0% | 0% | –
(±)‐Naringenin | 0% | 18% | –
(‐)‐Alkannin | 12% | 7% | –
(‐)‐Epicatechin gallate | 5% | 8% | –
(‐)‐Epigalloca techin | 3% | 0% | –
(‐)‐Gallocatechin gallate | 60% | 5% | –
(‐)‐Sparteine | 0% | 4% | –
(−)-Myrtenal | 21% | 14% | –
Alisol B 23-acetate | 0% | 2% | –
Alpinetin | 1% | 14% | –
Amarogentin | 2% | 8% | –
Aprotinin | 4% | 9% | –
Asiaticoside | 6% | 0% | –
Astragaloside I | 13% | 23% | –
Avermectin B1 [reference compound] | – | 41% | Inhibition (%) 110 μM (0 h): 81 ± 1%; Inhibition (%) 110 μM (24 h): 42 ± 1%
Bacopaside II | 7% | 9% | –
Bavachinin | 0% | 2% | –
Benzalkonium chloride | 50% | 58% | –
Brusatol | 48% | 37% | –
Bulleyaconitine A | 26% | 26% | –
Capreomycin (sulfate) | 12% | 0% | –
Capsaicin β‐D‐glucopyrano side | – | – | Percentage of motility inhibition 0 h (110 µM): 3%; Percentage of motility inhibition 24 h (110 µM): 0%
Clinodiside A | 1% | 0% | –

Substance | Percentage of motility inhibition 0 h [1] | Percentage of motility inhibition 24 h [2] | other results
Colistin (sulfate) | 14% | 0% | –
Corylin | 25% | 15% | –
Cucurbitacin B | 5% | 0% | –
Cycleanine | 4% | 4% | –
Dictamine | – | – | Percentage of motility inhibition 0 h (110 µM): 0%; Percentage of motility inhibition 24 h (110 µM): 20%
Diniconazole | 19% | 5% | –
Dryocrassin ABBA | 12% | 18% | –
Echinocystic acid | 45% | 35% | –
Enfuvirtide | – | – | Percentage of motility inhibition 0 h (0 h, 110 μM): 36%; Percentage of motility inhibition 24 h (24 h, 110 µM): 30%
Engeletin | 11% | 9% | –
Epimedin A | 13% | 13% | –
Eprinomectin [reference compound] | 96% | 86% | Inhibition (%) 110 μM (0 h): 91 ± 3%; Inhibition (%) 110 μM (24 h): 92 ± 3%
Escin | – | 8% and 6% | –
Evocarpine | 8% | 20% | –
Evodiamine | 0% | 23% | –
Ginkgolide B | 4% | 7% | –
Ginkgolide C | 12% | 0% | –
Ginkgolide J | 0% | 25% | –
Gypsogenin-3-O-glucuronide | 50% | 10% | –
Handelin | 0% | 14% | –
Harpagide | 9% | 13% | –
Hosenkoside C | 0% | 5% | –
Hyaluronic acid | 0% | 4% | –
Hydrastinine (hydrochloride) | 7% | 0% | –

Substance | Percentage of motility inhibition 0 h [1] | Percentage of motility inhibition 24 h [2] | other results
Hydroxysafflor yellow A | – | – | Percentage of motility inhibition 0 h (110 µM): 36%; Percentage of motility inhibition 24 h (110 µM): 12%
Ingenol-5,20-acetonide | 4% | 6% | –
Inulin | 4% | 17% | –
Isoliquiritin apioside | 47% | 8% | –
Kansuiphorin C | 5% | 29% | –
Kukoamine B | 8% | 0% | –
Larixyl acetate | 0% | 44% | –
Liensinine (Diperchlorate) | 0% | 0% | –
Liensinine (perchlorate) | 7% | 0% | –
Madecassoside | 12% | 1% | –
Milbemycin [reference compound] | – | – | Inhibition (%) 110 μM (0 h): 100 ± 0%; Inhibition (%) 110 μM (24 h): 86 ± 14%
Miquelianin | 1% | 0% | –
Mogroside II-A | 0% | 14% | –
Mogroside IIA1 | 6% | 47% | –
Neoline | 21% | 1% | –
Nordihydrocapsaicin | – | – | Percentage of motility inhibition 0 h (110 µM): 0%; Percentage of motility inhibition 24 h (110 µM): 4%
Notoginsenoside Fe | 0% | 0% | –
Oxypaeoniflorin | 0% | 0% | –
Penitrem A | 0% | 14% | –
Phillyrin | 0% | 0% | –
Phytol | 13% | 5% | –
Protopine | 0% | 0% | –

— PMC11855827, “High-Throughput Screening of Five Compound Libraries for Anthelmintic Activity and Toxicity Leads to the Discovery of Two Flavonoid Compounds” (International Journal of Molecular Sciences, 2025)
